Data on 20 molecules can be found in ChEMBL document CHEMBL4513134, “CO-ADD screening of University of Queensland (Australia) compounds” (2021).

Converted amounts (≈) assume the structure as drawn. Where only a bound is given, the exact number is not on record here.

For one assay, the system named is Escherichia coli. Description: microbe, parasite or virus in culture. Particulars: ATCC 25922, 18 h, ASSAY_TEST Inhibition of Bacterial Growth, detection method Absorption (OD600), MEDIA CAMHB, plate type 384well, NBS, CORNING #3640.
The next assay has as its system HEK293. Description: cells. Particulars: ASSAY_TEST Inhibition of Cell Viability, detection method Resazurin, Fluorescence (ex560/em590), MEDIA DMEM with 10% FBS, plate type 384well, TC, CORNING #3712, time 18 hr. The class given is functional, Homo sapiens, ATCC CRL1573.
The next assay concerns Klebsiella pneumoniae. Description: microbe, parasite or virus in culture. Particulars: ATCC 700603, 18 h, ASSAY_TEST Inhibition of Bacterial Growth, detection method Absorption (OD600), MEDIA CAMHB, plate type 384well, NBS, CORNING #3640.
The subject of another assay is Candida albicans. As to the kind of experiment: microbe, parasite or virus in culture. Particulars: ATCC 90028, ASSAY_TEST Inhibition of Fungal Growth, detection method Absorption (OD530), plate type 384well, NBS, CORNING #3640.
The next assay deals with Staphylococcus aureus. As to the kind of experiment: microbe, parasite or virus in culture. The following applies: ATCC 43300, 18 h, ASSAY_TEST Inhibition of Bacterial Growth, detection method Absorption (OD600), MEDIA CAMHB, plate type 384well, NBS, CORNING #3640.
The next assay has as its system Acinetobacter baumannii. Description: microbe, parasite or virus in culture. The following applies: ATCC 19606, 18 h, ASSAY_TEST Inhibition of Bacterial Growth, detection method Absorption (OD600), MEDIA CAMHB, plate type 384well, NBS, CORNING #3640.
In another assay the test system is Pseudomonas aeruginosa. Description: microbe, parasite or virus in culture. Particulars: ATCC 27853, 18 h, ASSAY_TEST Inhibition of Bacterial Growth, detection method Absorption (OD600), MEDIA CAMHB, plate type 384well, NBS, CORNING #3640.
[1] abbreviates: Homo sapiens, ATCC CRL1573, HEK293, read-out: CC50.

Description for Acinetobacter baumannii: Antibacterial activity against Acinetobacter baumannii ATCC 19606 (CO-ADD:GN_034); MIC in CAMBH media using NBS plates, by OD600
Description for Candida albicans: Antifungal activity against Candida albicans ATCC 90028 (CO-ADD:FG_001); MIC in YNB media using NBS plates, by OD630
Description for Cryptococcus neoformans: Antifungal activity against Cryptococcus neoformans H99 ATCC 208821 (CO-ADD:FG_002); MIC in YNB media using NBS plates, by Resazurin OD(600-570)
Description for Escherichia coli: Antibacterial activity against Escherichia coli ATCC 25922 (CO-ADD:GN_001); MIC in CAMBH media using NBS plates, by OD(600)
Description for Klebsiella pneumoniae: Antibacterial activity against Klebsiella pneumoniae MDR ATCC 70063 (CO-ADD:GN_003); MIC in CAMBH media using NBS plates, by OD(600)
Description for Pseudomonas aeruginosa: Antibacterial activity against Pseudomonas aeruginosa ATCC 27853 (CO-ADD:GN_042); MIC in CAMBH media using NBS plates, by OD(600)
Description for Staphylococcus aureus: Antibacterial activity against Staphylococcus aureus MRSA ATCC 43300 (CO-ADD:GP_020); MIC in CAMBH media, using NBS plates, by OD(600)

Regarding `Cn1c([N+](=O)[O-])cnc1C(=O)NC1CCCCC1`, the MIC in the assay with Escherichia coli, in the assay with Klebsiella pneumoniae, in the assay on Candida albicans, with Staphylococcus aureus, in the assay on Cryptococcus neoformans and against Acinetobacter baumannii was above 32 µg/mL each time. In addition, in the assay on Pseudomonas aeruginosa, the MIC is above 32 µg/mL. In addition, the CC50 in the assay with HEK293 (setting [1]) was above 32 µg/mL.

In the assay on Staphylococcus aureus, `Cc1ccc(CNC(=O)c2nc([N+](=O)[O-])c[nH]2)cc1` returned an MIC of 32 µg/mL (≈ 123 µM).

On to `O=C(NCc1cccc(OC(F)(F)F)c1)c1ncc([N+](=O)[O-])[nH]1`, for which the MIC against Staphylococcus aureus worked out at 16 µg/mL (≈ 48.5 µM).

On to `Cc1cn2cc([N+](=O)[O-])nc2c(OCc2ccc(OC(F)(F)F)cc2)n1`, for which, in the assay with HEK293, the CC50 was above 100.

The molecule `Cc1c(C)n2cc([N+](=O)[O-])nc2c(=O)n1Cc1ccc(OC(F)(F)F)cc1` returned a CC50 with HEK293 above 100.

The molecule `Cc1cn2cc([N+](=O)[O-])nc2c(OCCO)n1` came in with a CC50 in the assay on HEK293 above 100.

Consider `CN(Cc1ccccc1)C(=O)c1ncc([N+](=O)[O-])n1C`, for which the MIC against Escherichia coli, against Klebsiella pneumoniae, with Candida albicans, against Staphylococcus aureus, against Cryptococcus neoformans and against Acinetobacter baumannii was above 32 µg/mL throughout. The MIC in the assay on Pseudomonas aeruginosa is above 32 µg/mL. For the same molecule, the CC50 with HEK293 (setting [1]) was above 32 µg/mL.

For the molecule `Cc1cn2cc([N+](=O)[O-])nc2c(=O)n1CCO`, the CC50 in the assay on HEK293 was above 100.

For `CCOC(=O)c1nc([N+](=O)[O-])cn1Cc1ccc(OC(F)(F)F)cc1`, in the assay on HEK293, the CC50 is on record as above 100.

`CNC(=O)c1nc([N+](=O)[O-])cn1Cc1ccc(OC(F)(F)F)cc1`: the CC50 with HEK293 was above 100.

On to `Cn1c([N+](=O)[O-])cnc1C(=O)OC1CCCCC1`, for which the MIC against Escherichia coli, against Klebsiella pneumoniae, against Candida albicans, against Staphylococcus aureus, with Cryptococcus neoformans and in the assay with Acinetobacter baumannii was above 32 µg/mL each time. Moreover, the MIC in the assay on Pseudomonas aeruginosa is above 32 µg/mL. Besides, the CC50 with HEK293 (setting [1]) is above 32 µg/mL.

With `Cc1ccc(CCNC(=O)c2ncc([N+](=O)[O-])[nH]2)cc1`, the MIC against Staphylococcus aureus came out at 32 µg/mL (≈ 117 µM).

With `Cc1cn2cc([N+](=O)[O-])nc2c(=O)[nH]1`, in the assay on HEK293, the CC50 is recorded as above 100.

The molecule `CN(C)C(=O)c1nc([N+](=O)[O-])cn1Cc1ccc(OC(F)(F)F)cc1` gave a CC50 with HEK293 above 100.

With `Cc1cn2cc([N+](=O)[O-])nc2c(=O)n1Cc1ccc(OC(F)(F)F)cc1`, the CC50 with HEK293 is given as above 100.

For the molecule `CC(=O)OCCn1c(C)cn2cc([N+](=O)[O-])nc2c1=O`, in the assay on HEK293, the CC50 is above 100.

In turn, `COc1nc(C)cn2cc([N+](=O)[O-])nc12` gave a CC50 in the assay with HEK293 above 50.

In the assay with Staphylococcus aureus, `CN(Cc1ccc(OC(F)F)cc1)C(=O)c1ncc([N+](=O)[O-])[nH]1` showed an MIC of 16 µg/mL (≈ 49 µM).

In the assay with HEK293, `NC(=O)c1nc([N+](=O)[O-])cn1CCO` came in with a CC50 above 100.

As for `O=[N+]([O-])c1cn2ccnc(OCCc3ccc(OC(F)(F)F)cc3)c2n1`, the CC50 with HEK293 is given as above 100.
